Patent publication US4264577A, “Contraceptive methods and compositions” (Eli Lilly and Company, priority 1980, dated 1981)

What was measured:
[1] = Drug release rate in vitro from dimethylpolysiloxane rubber rod, Method B (water, methylene blue method); type: physicochemical; details: rod 341.4 mg, 10% W/W
Method: A dimethylpolysiloxane rubber rod (3 cm. long, 3 mm. diameter) weighing 341.4 mg. and containing 10% (W/W) of dispersed sodium n-tetradecyl sulfate (prepared by Example 3, Method B, lot no. 225-1) is placed in a container and is covered with 10 ml. of water. The rod and the water are incubated together at 37° C. for a seven-day period, after which the water is removed. The sodium n-tetradecyl sulfate in the water is determined by the methylene blue method as described by K. Hiyashi, Analytical Biochemistry, 67, 503 (1975).
The above procedure may be repeated at 7-day intervals by adding fresh water to the rod after each removal of water for assay. Table 5, below, gives the results of a test performed as above-described for 140 days.

[2] = tested on: virgin dutch belted female rabbit; experiment: Antifertility effect by intravaginal administration (K-Y jelly mixture); type: in vivo; details: 1 ml of K-Y jelly mixed with equal volume of 10 mg./ml. solution, 4 animals
Method: Equal volumes of K-Y-jelly® and either Ca^++ free Ringer's solution or a 10 mg./ml. solution of the compound to be tested in Ca^++ free Ringer's solution are well mixed. One milliliter of this is placed into the vagina of a virgin dutch belted female rabbit using a syringe. The female is then immediately bred to a fertile buck. The female is injected I.V. with […] of human chorionic gonadotrophin to assure a good ovulation rate.
After approximately 14 days the females are sacrificed by cervical dislocation and the genital system examined for the number of embryos.

[3] = Drug release rate in vivo, intrauterine medicated rubber rods; design: species or system rabbit; details: uterine horn
Method: (a) Dimethylpolysiloxane rubber rods (3 mm. diameter shaved to 2 mm.) weighing 40 mg. each and containing 5, 10, or 20% (W/W) of sodium n-tetradecyl sulfate (prepared by Example 3, Method B, lots 218-1, 225-1, and 218-2, respectively) are inserted into the right uterine horn of virgin Dutch -belted female rabbits, as follows:
After 60 days the animals in Group 1 are sacrificed and the rubber rods are removed, washed, and extracted continuously with methanol for 24 hours to remove the remaining sodium n-tetradecyl sulfate. The methanol extract is evaporated. The residue is dissolved in 10% methanol-water and assayed for sodium n-tetradecyl sulfate by the methylene blue method. The amount of active compound remaining in the rod is subtracted from the amount originally present in the rod, and the difference is assumed to be the amount released during the time period. After 120 days or […] the animals in Group 2 and Group 3, respectively, are sacrificed, and the rods were removed and treated as above described. The release of sodium n-tetradecyl sodium sulfate into the uterine fluids, as determined by the afore-described test procedure, after 60, 120, and 180 days is shown in Table 8, below: […]

[4] = tested on: rabbits; experiment: Efficacy in vivo, rods sutured into both uterine horns, bred weekly; design: species or system rabbit; details: five rabbits, rods 20% (W/W) in both uterine horns, bred weekly for 225 days
Text: (b) Five rabbits having rods containing 20% (W/W) sodium tetradecyl
sulfate (as described above) sutured into both uterine horns were bred

[5] = tested on: cumulus oophorus of rabbit ova; experiment: Removal of cumulus oophorus from ova by hyaluronidase, in vitro; type: cell-based; details: 10 μl. of 10 mg./ml. solution in 1 ml medium, 37° C.; sulfate
Method: In the absence of sodium n-tetradecyl sulfate, complete removal of the cumulus oophorus and zona pellucida is observed.
Female rabbits are given 100 units of pregnant mares serum (PMS), IM, and 134 units of HCG, IV. After 13 hours the animals are sacrificed, and the ovaries are excised. The ovaries are submerged in calcium-free Ringer's solution containing 20% rabbit serum which had been heated to 55° C. for 20 minutes. Ova with cumulus intact are removed and placed in calcium-free Ringer's solution for incubation at 37° C. Hyaluronidase (10 μl.) of a 10 mg./ml. solution in calcium-free Ringer's solution is added to 20 ova in 1 ml. of the incubation medium. To 10 ova in the same medium is added 10 μl. of a solution of sodium n-tetradecyl sulfate (10 mg./ml.) in calcium-free Ringer's solution. To 10 other ova in the same media is added 10 μl. of calcium-free Ringer's solution as control. The mixtures are incubated at 37° C., and the cumulus oophorus is examined at 15 minute intervals with an American Optical stereomicroscope. In the absence of sodium tetradecyl sulfate, the cumulus oophorus is completely removed.

[6] = tested on: sperm; experiment: Standard in vitro spermicidal tests (kill or immobilize sperm); type: cell-based; details: standard in vitro tests: ability to kill or immobilize sperm
Text: The alkyl or alkenyl sulfate salts have surface-active properties, and the sodium salts of dodecyl sulfate (lauryl sulfate), tetradecyl sulfate (myristyl sulfate), and hexadecyl sulfate (cetyl sulfate) are particularly useful surfactants for many applications. Sodium lauryl sulfate, for example, is widely used in topical creams, lotions and other preparations used for pharmaceutical or cosmetic purposes. A mixture of sodium lauryl sulfate and sodium myristyl sulfate is used commercially as a wetting agent, primarily in the paper industry. It is well known that surfactants may denature proteins when present in aqueous solutions in sufficient concentrations because the surface activity may affect peptide conformation.

[7] = tested on: rats; details: orally (rats); cited from earlier work

**Q.** Which “Amount of sodium n-tetradecyl sulfate released Per day Calc.” value ([1]; Day 7) does the source give for `CCCCCCCCCCCCCCOS(=O)(=O)[O-].[Na+]` [n-tetradecyl, sodium n-tetradecyl sulfate] here?
**A.** 1.3 µg

**Q.** And the “Amount of sodium n-tetradecyl sulfate released Per 7 days” value ([1]; Day 7, 10 ml water 37° C.)?
**A.** 9 µg

**Q.** And the “Amount of sodium n-tetradecyl sulfate released Per 7 days” value ([1]; Day 14)?
**A.** 1.9 µg

**Q.** And the “Amount of sodium n-tetradecyl sulfate released Per day Calc.” value ([1]; Day 14)?
**A.** 0.3 µg

**Q.** And the “Amount of sodium n-tetradecyl sulfate released Per 7 days” value ([1]; Day 21)?
**A.** 34.2 µg

**Q.** What about the “Amount of sodium n-tetradecyl sulfate released Per day Calc.” value ([1]; Day 21) of the same molecule?
**A.** 4.9 µg

**Q.** What about the “Amount of sodium n-tetradecyl sulfate released Per 7 days” value ([1]; Day 28) of the same molecule?
**A.** 160 µg

**Q.** And the “Amount of sodium n-tetradecyl sulfate released Per day Calc.” value ([1]; Day 28)?
**A.** 22.8 µg

**Q.** What about the “Amount of sodium n-tetradecyl sulfate released Per 7 days” value ([1]; Day 35) of the same molecule?
**A.** 290 µg

**Q.** What about the “Amount of sodium n-tetradecyl sulfate released Per day Calc.” value ([1]; Day 35) of the same molecule?
**A.** 41.4 µg

**Q.** What about the “Amount of sodium n-tetradecyl sulfate released Per 7 days” value ([1]; Day 42) of the same molecule?
**A.** 144 µg

**Q.** And the “Amount of sodium n-tetradecyl sulfate released Per day Calc.” value ([1]; Day 42)?
**A.** 20.6 µg

**Q.** And the “Amount of sodium n-tetradecyl sulfate released Per 7 days” value ([1]; Day 49)?
**A.** 947 µg

**Q.** And the “Amount of sodium n-tetradecyl sulfate released Per day Calc.” value ([1]; Day 49)?
**A.** 135.3 µg

**Q.** And the “Amount of sodium n-tetradecyl sulfate released Per 7 days” value ([1]; Day 56)?
**A.** 133 µg

**Q.** What about the “Amount of sodium n-tetradecyl sulfate released Per day Calc.” value ([1]; Day 56) of the same molecule?
**A.** 19 µg

**Q.** What about the “Amount of sodium n-tetradecyl sulfate released Per 7 days” value ([1]; Day 63) of the same molecule?
**A.** 111 µg

**Q.** What about the “Amount of sodium n-tetradecyl sulfate released Per day Calc.” value ([1]; Day 63) of the same molecule?
**A.** 16 µg

**Q.** And the “Amount of sodium n-tetradecyl sulfate released Per 7 days” value ([1]; Day 70)?
**A.** 333 µg

**Q.** What about the “Amount of sodium n-tetradecyl sulfate released Per day Calc.” value ([1]; Day 70) of the same molecule?
**A.** 47.5 µg

**Q.** What about the “Amount of sodium n-tetradecyl sulfate released Per 7 days” value ([1]; Day 77) of the same molecule?
**A.** 111 µg

**Q.** What about the “Amount of sodium n-tetradecyl sulfate released Per day Calc.” value ([1]; Day 77) of the same molecule?
**A.** 16.0 µg

**Q.** And the “Amount of sodium n-tetradecyl sulfate released Per 7 days” value ([1]; Day 84)?
**A.** 0 µg

**Q.** And the “Amount of sodium n-tetradecyl sulfate released Per day Calc.” value ([1]; Day 84)?
**A.** 0 µg

**Q.** And the “Amount of sodium n-tetradecyl sulfate released Per 7 days” value ([1]; Day 91)?
**A.** 105 µg

**Q.** What about the “Amount of sodium n-tetradecyl sulfate released Per day Calc.” value ([1]; Day 91) of the same molecule?
**A.** 15 µg

**Q.** And the “Amount of sodium n-tetradecyl sulfate released Per 7 days” value ([1]; Day 98)?
**A.** 644 µg

**Q.** What about the “Amount of sodium n-tetradecyl sulfate released Per day Calc.” value ([1]; Day 98) of the same molecule?
**A.** 92 µg

**Q.** What about the “Amount of sodium n-tetradecyl sulfate released Per 7 days” value ([1]; Day 105) of the same molecule?
**A.** 1477 µg

**Q.** And the “Amount of sodium n-tetradecyl sulfate released Per day Calc.” value ([1]; Day 105)?
**A.** 211 µg

**Q.** What about the “Amount of sodium n-tetradecyl sulfate released Per 7 days” value ([1]; Day 112) of the same molecule?
**A.** 430 µg

**Q.** And the “Amount of sodium n-tetradecyl sulfate released Per day Calc.” value ([1]; Day 112)?
**A.** 61.4 µg

**Q.** What about the “Amount of sodium n-tetradecyl sulfate released Per 7 days” value ([1]; Day 119) of the same molecule?
**A.** 600 µg

**Q.** And the “Amount of sodium n-tetradecyl sulfate released Per day Calc.” value ([1]; Day 119)?
**A.** 85.7 µg

**Q.** What about the “Amount of sodium n-tetradecyl sulfate released Per 7 days” value ([1]; Day 126) of the same molecule?
**A.** 1500 µg

**Q.** And the “Amount of sodium n-tetradecyl sulfate released Per day Calc.” value ([1]; Day 126)?
**A.** 214.3 µg

**Q.** And the “Amount of sodium n-tetradecyl sulfate released Per 7 days” value ([1]; Day 133)?
**A.** 2600 µg

**Q.** What about the “Amount of sodium n-tetradecyl sulfate released Per day Calc.” value ([1]; Day 133) of the same molecule?
**A.** 371 µg

**Q.** And the “Amount of sodium n-tetradecyl sulfate released Per 7 days” value ([1]; Day 140)?
**A.** 4000 µg

**Q.** What about the “Amount of sodium n-tetradecyl sulfate released Per day Calc.” value ([1]; Day 140) of the same molecule?
**A.** 571 µg

**Q.** What about the “Percent of compound released after 140 days” value ([1]; initial amount 34.14 mg.) of the same molecule?
**A.** 37%

**Q.** What about the “Total amount of compound released after 140 days” value ([1]; initial amount 34.14 mg.) of the same molecule?
**A.** 12.63 mg

**Q.** What about the “Avg. No. of Embryos per animal” value [2] of the same molecule?
**A.** 0

**Q.** What about the No. of embryos [2] of the same molecule?
**A.** 0

**Q.** And the “Amount of sodium n-tetradecyl sulfate released (μg. per day)” value (“Amount … (μg. per day)” for short) ([3]; 5% compound in rod, 60 days)?
**A.** 2.25 μg. per day

**Q.** And the “Amount … (μg. per day)” value ([3]; 5% compound in rod, 120 days)?
**A.** 1.80 μg. per day

**Q.** And the “Amount … (μg. per day)” value ([3]; 5% compound in rod, 180 days)?
**A.** 3.60 μg. per day

**Q.** And the “Amount … (μg. per day)” value ([3]; 10% compound in rod, 60 days)?
**A.** 22.1 μg. per day

**Q.** What about the “Amount … (μg. per day)” value ([3]; 10% compound in rod, 120 days) of the same molecule?
**A.** 13.7 μg. per day

**Q.** And the “Amount … (μg. per day)” value ([3]; 20% compound in rod, 60 days)?
**A.** 62.4 μg. per day

**Q.** And the “Amount … (μg. per day)” value ([3]; 20% compound in rod, 120 days)?
**A.** 33.5 μg. per day

**Q.** What about the pregnancies [4] of the same molecule?
**A.** without any pregnancies noted

**Q.** And the “state of cumulus oophorus in presence of hyaluronidase” value [5]?
**A.** remains substantially intact

**Q.** And the classical spermicidal activity [6]?
**A.** does not show classical spermicidal activity

**Q.** What about the LD50 [7] of the same molecule?
**A.** greater than 3.5 g/kg.
